Data published in patent publication US20100267561A1, “HERBICIDAL PYRIDAZINONE DERIVATIVES” (priority 2007, published 2010).

How the values were obtained:
Assay in all cases: Test E pre-/postemergence plant response
Type in all cases: in vivo
[1] = tested on: Italian ryegrass (Lolium multiflorum)
How it was run: (§1)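 In this greenhouse assay, sown seeds received preemergence treatment and young plants of 2 to 18 cm (1- to 4-leaf stage) received postemergence treatment, both with compound in a non-phytotoxic solvent and surfactant vehicle. Effects were rated visually 14 to 21 days later on a 0–100 control scale.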

[2] = tested on: barnyardgrass (Echinochloa crus-galli); conditions: Postemergence, scale 0 to 100
How it was run: as §1

[3] = tested on: black mustard (Brassica nigra); conditions: Postemergence, scale 0 to 100
How it was run: as §1

[4] = tested on: broadleaf signalgrass (Brachiaria platyphylla)
How it was run: as §1

[5] = tested on: common mallow (Malva sylvestris)
How it was run: as §1

[6] = tested on: common purslane (Portulaca oleracea)
How it was run: as §1

[7] = tested on: green foxtail (Setaria viridis)
How it was run: as §1

[8] = tested on: guineagrass (Panicum maximum)
How it was run: as §1

[9] = tested on: large crabgrass (Digitaria sanguinalis)
How it was run: as §1

[10] = tested on: naked crabgrass (Digitaria nuda)
How it was run: as §1

[11] = tested on: pitted morningglory (Ipomoea lacunosa)
How it was run: as §1

[12] = tested on: prickly sida (Sida spinosa)
How it was run: as §1

[13] = tested on: purple nutsedge (Cyperus rotundus)
How it was run: as §1

[14] = tested on: quackgrass (Elytrigia repens)
How it was run: as §1

[15] = tested on: southern (S.) sandbur (Cenchrus echinatus)
How it was run: as §1

[16] = tested on: surinam grass (Brachiaria decumbens)
How it was run: as §1

[17] = Postemergence, 8 g ai/ha, scale 0 to 100
[18] = Postemergence, 16 g ai/ha; scale 0 to 100
[19] = Postemergence, 31 g ai/ha; scale 0 to 100
[20] = Postemergence, 62 g ai/ha; scale 0 to 100
[21] = 8 g ai/ha, Postemergence, scale 0 to 100

Cc1cc(-c2ccc(Cl)cc2)nn1-c1c(OC(=O)c2cccc(Cl)c2)cnn(C)c1=O [Compound 32]
Plant response rating, Ryegrass, Italian [1, 17]: 75 | Plant response rating, Ryegrass, Italian [1, 18]: 95 | Plant response rating, Ryegrass, Italian [1, 19]: 95 | Plant response rating, Ryegrass, Italian [1, 20]: 98 | Plant response rating, Barnyardgrass ([2]; 8 g ai/ha): 98 | Plant response rating, Barnyardgrass ([2]; 16 g ai/ha): 98 | Plant response rating, Barnyardgrass ([2]; 31 g ai/ha): 100 | Plant response rating, Barnyardgrass ([2]; 62 g ai/ha): 100 | Plant response rating, Mustard, Black ([3]; 8 g ai/ha): 0 | Plant response rating, Mustard, Black ([3]; 16 g ai/ha): 0 | Plant response rating, Mustard, Black ([3]; 31 g ai/ha): 0 | Plant response rating, Mustard, Black ([3]; 62 g ai/ha): 0 | Plant response rating, Signalgrass [4, 17]: 80 | Plant response rating, Signalgrass [4, 18]: 80 | Plant response rating, Signalgrass [4, 19]: 95 | Plant response rating, Signalgrass [4, 20]: 100 | Plant response rating, Mallow [5, 17]: 0 | Plant response rating, Mallow [5, 18]: 0 | Plant response rating, Mallow [5, 19]: 0 | Plant response rating, Mallow [5, 20]: 0 | Plant response rating, Purslane [6, 17]: 0 | Plant response rating, Purslane [6, 18]: 0 | Plant response rating, Purslane [6, 19]: 0 | Plant response rating, Purslane [6, 20]: 0 | Plant response rating, Foxtail, Green [7, 17]: 40 | Plant response rating, Foxtail, Green [7, 18]: 60 | Plant response rating, Foxtail, Green [7, 19]: 85 | Plant response rating, Foxtail, Green [7, 20]: 90 | Plant response rating, Guineagrass [8, 17]: 90 | Plant response rating, Guineagrass [8, 18]: 98 | Plant response rating, Guineagrass [8, 19]: 98 | Plant response rating, Guineagrass [8, 20]: 100 | Plant response rating, Crabgrass, Large [9, 17]: 35 | Plant response rating, Crabgrass, Large [9, 18]: 75 | Plant response rating, Crabgrass, Large [9, 19]: 75 | Plant response rating, Crabgrass, Large [9, 20]: 80 | Plant response rating, Crabgrass, Naked [10, 17]: 60 | Plant response rating, Crabgrass, Naked [10, 19]: 80 | Plant response rating, Crabgrass, Naked [10, 20]: 90 | Plant response rating, Morningglory [11, 17]: 0 | Plant response rating, Morningglory [11, 18]: 35 | Plant response rating, Morningglory [11, 19]: 35 | Plant response rating, Morningglory [11, 20]: 50 | Plant response rating, Prickly Sida [12, 17]: 0 | Plant response rating, Prickly Sida [12, 18]: 0 | Plant response rating, Prickly Sida [12, 19]: 0 | Plant response rating, Prickly Sida [12, 20]: 0 | Plant response rating, Nutsedge, Purple [13, 17]: 0 | Plant response rating, Nutsedge, Purple [13, 18]: 0 | Plant response rating, Nutsedge, Purple [13, 19]: 0 | Plant response rating, Nutsedge, Purple [13, 20]: 0 | Plant response rating, Quackgrass [14, 17]: 0 | Plant response rating, Quackgrass [14, 18]: 0 | Plant response rating, Quackgrass [14, 19]: 0 | Plant response rating, Quackgrass [14, 20]: 0 | Plant response rating, Sandbur, S. [15, 17]: 60 | Plant response rating, Sandbur, S. [15, 18]: 75 | Plant response rating, Sandbur, S. [15, 19]: 80 | Plant response rating, Sandbur, S. [15, 20]: 80 | Plant response rating, Surinam Grass [16, 17]: 80 | Plant response rating, Surinam Grass [16, 19]: 100 | Plant response rating, Surinam Grass [16, 20]: 100

Cc1cc(-c2ccc(Cl)cc2)nn1-c1c(OC(=O)Oc2ccccc2)cnn(C)c1=O [Compound 54]
Plant response rating, Ryegrass, Italian [1, 21]: 80 | Plant response rating, Ryegrass, Italian [1, 18]: 80 | Plant response rating, Ryegrass, Italian [1, 19]: 100 | Plant response rating, Ryegrass, Italian [1, 20]: 100 | Plant response rating, Barnyardgrass ([2]; 8 g ai/ha): 95 | Plant response rating, Barnyardgrass ([2]; 16 g ai/ha): 98 | Plant response rating, Barnyardgrass ([2]; 31 g ai/ha): 100 | Plant response rating, Barnyardgrass ([2]; 62 g ai/ha): 100 | Plant response rating, Mustard, Black ([3]; 8 g ai/ha): 0 | Plant response rating, Mustard, Black ([3]; 16 g ai/ha): 0 | Plant response rating, Mustard, Black ([3]; 31 g ai/ha): 0 | Plant response rating, Mustard, Black ([3]; 62 g ai/ha): 0 | Plant response rating, Signalgrass [4, 21]: 75 | Plant response rating, Signalgrass [4, 18]: 90 | Plant response rating, Signalgrass [4, 19]: 98 | Plant response rating, Signalgrass [4, 20]: 100 | Plant response rating, Mallow [5, 21]: 0 | Plant response rating, Mallow [5, 18]: 0 | Plant response rating, Mallow [5, 19]: 0 | Plant response rating, Mallow [5, 20]: 0 | Plant response rating, Purslane [6, 21]: 0 | Plant response rating, Purslane [6, 18]: 0 | Plant response rating, Purslane [6, 19]: 0 | Plant response rating, Purslane [6, 20]: 0 | Plant response rating, Foxtail, Green [7, 21]: 40 | Plant response rating, Foxtail, Green [7, 18]: 70 | Plant response rating, Foxtail, Green [7, 19]: 80 | Plant response rating, Foxtail, Green [7, 20]: 98 | Plant response rating, Guineagrass [8, 21]: 95 | Plant response rating, Guineagrass [8, 18]: 95 | Plant response rating, Guineagrass [8, 19]: 95 | Plant response rating, Guineagrass [8, 20]: 100 | Plant response rating, Crabgrass, Large [9, 21]: 25 | Plant response rating, Crabgrass, Large [9, 18]: 80 | Plant response rating, Crabgrass, Large [9, 19]: 95 | Plant response rating, Crabgrass, Large [9, 20]: 100 | Plant response rating, Crabgrass, Naked [10, 21]: 10 | Plant response rating, Crabgrass, Naked [10, 18]: 85 | Plant response rating, Crabgrass, Naked [10, 19]: 90 | Plant response rating, Crabgrass, Naked [10, 20]: 90 | Plant response rating, Morningglory [11, 21]: 0 | Plant response rating, Morningglory [11, 18]: 0 | Plant response rating, Morningglory [11, 19]: 0 | Plant response rating, Morningglory [11, 20]: 0 | Plant response rating, Prickly Sida [12, 21]: 0 | Plant response rating, Prickly Sida [12, 18]: 0 | Plant response rating, Prickly Sida [12, 19]: 0 | Plant response rating, Prickly Sida [12, 20]: 0 | Plant response rating, Nutsedge, Purple [13, 21]: 0 | Plant response rating, Nutsedge, Purple [13, 18]: 0 | Plant response rating, Nutsedge, Purple [13, 19]: 0 | Plant response rating, Nutsedge, Purple [13, 20]: 0 | Plant response rating, Quackgrass [14, 21]: 0 | Plant response rating, Quackgrass [14, 18]: 0 | Plant response rating, Quackgrass [14, 19]: 0 | Plant response rating, Quackgrass [14, 20]: 35 | Plant response rating, Sandbur, S. [15, 21]: 60 | Plant response rating, Sandbur, S. [15, 18]: 80 | Plant response rating, Sandbur, S. [15, 19]: 90 | Plant response rating, Sandbur, S. [15, 20]: 95 | Plant response rating, Surinam Grass [16, 21]: 90 | Plant response rating, Surinam Grass [16, 18]: 90 | Plant response rating, Surinam Grass [16, 19]: 100 | Plant response rating, Surinam Grass [16, 20]: 100
